The text below walks through data of BindingDB's records for doi:10.1021/bi1005283 (Merck Research Laboratories, 2010).

For this experiment, the target named is T1, Kinesin-like protein KIF11 (Homo sapiens, UniProt P52732).
T1 sequence (P52732 whole entry): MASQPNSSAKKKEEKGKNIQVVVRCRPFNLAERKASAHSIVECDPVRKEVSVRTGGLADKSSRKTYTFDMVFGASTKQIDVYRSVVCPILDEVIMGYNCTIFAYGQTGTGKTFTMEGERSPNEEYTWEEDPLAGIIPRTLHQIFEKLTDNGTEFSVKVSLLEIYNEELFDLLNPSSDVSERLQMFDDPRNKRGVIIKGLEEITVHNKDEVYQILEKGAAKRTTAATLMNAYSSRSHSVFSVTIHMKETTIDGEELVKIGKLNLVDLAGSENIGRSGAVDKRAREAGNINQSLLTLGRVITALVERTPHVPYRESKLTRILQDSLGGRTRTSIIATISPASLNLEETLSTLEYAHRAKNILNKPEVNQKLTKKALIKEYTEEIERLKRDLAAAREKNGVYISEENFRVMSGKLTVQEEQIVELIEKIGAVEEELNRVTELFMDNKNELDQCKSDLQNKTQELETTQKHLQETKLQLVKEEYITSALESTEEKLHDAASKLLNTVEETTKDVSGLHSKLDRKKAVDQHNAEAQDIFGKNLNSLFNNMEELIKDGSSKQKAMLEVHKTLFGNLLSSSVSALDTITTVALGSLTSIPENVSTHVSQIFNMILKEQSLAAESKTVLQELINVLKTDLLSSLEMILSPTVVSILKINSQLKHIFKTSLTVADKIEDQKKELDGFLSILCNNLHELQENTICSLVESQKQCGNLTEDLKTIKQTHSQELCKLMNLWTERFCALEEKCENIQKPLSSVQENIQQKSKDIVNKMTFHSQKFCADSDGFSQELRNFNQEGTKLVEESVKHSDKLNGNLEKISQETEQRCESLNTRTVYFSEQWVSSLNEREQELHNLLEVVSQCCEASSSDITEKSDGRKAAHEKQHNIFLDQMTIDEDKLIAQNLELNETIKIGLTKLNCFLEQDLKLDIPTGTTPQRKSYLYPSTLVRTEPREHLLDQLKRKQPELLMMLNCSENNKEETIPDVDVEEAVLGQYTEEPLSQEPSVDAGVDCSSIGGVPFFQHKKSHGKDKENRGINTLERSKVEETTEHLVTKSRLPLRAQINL
Nature of the experiment: Binding Assay. From the text:
Binding assay using temperature-dependent circular dichroism (TdCD). In TdCD, the loss of protein secondary structure was monitored as a function of temperature. Proteins bound with ligand become more resistant to thermal unfolding compared to the unliganded protein because of the additional stabilization interactions created between the ligand and protein.
As a reminder, the Kd is the constant that tells how readily two partners part at equilibrium. As to `COc1ccc(Nc2nc3cc(C(=O)O)ccc3n2Cc2ccccc2OC(F)(F)F)cc1` [KSP Inhibitor, 4g], the dissociation constant Kd came to 3400 nM. With `NC(=O)c1ccc2c(c1)nc(Nc1ccc(S(N)(=O)=O)cc1)n2Cc1ccccc1C(F)(F)F` [KSP Inhibitor, 4e], the Kd came to 600 nM. For `COc1ccc(Nc2nc3cc(C(=O)O)ccc3n2Cc2ccccc2OC)cc1` [KSP Inhibitor, 4d] the value was 5000 nM.

Turning to `CSc1ccc(Nc2nc3cc(C(N)=O)ccc3n2Cc2ccccc2C(F)(F)F)cc1` [KSP Inhibitor, 4a], the affinity, expressed as Kd, was 2000 nM. As to `COc1ccc(Nc2nc3cc(C(=O)O)ccc3n2Cc2ccccc2C(F)(F)F)cc1`, the Kd turned out to be 1200 nM.

Regarding `CS(=O)(=O)c1ccc(Nc2nc3cc(C(N)=O)ccc3n2Cc2ccccc2C(F)(F)F)cc1` [KSP Inhibitor, 4b], the affinity, expressed as Kd, was 2500 nM. For `O=C(O)c1ccc2c(c1)nc(Nc1ccc(OCc3ccccc3)cc1)n2Cc1ccccc1C(F)(F)F` [KSP Inhibitor, 4c] the value was 14000 nM.
